In US20090286695A1, “LUMINESCENT STEM CELLS AND USES THEREOF” (AXXAM S.P.A., priority 2006, published 2009):
One block for each molecule: values may come before it.

How the values were obtained:
Assay type in all cases: cell-based, mouse
[1] = test system: Metabotropic or Ionotropic Glutamate Receptors; assay: FLIPR384 Fluo-4 NW calcium test on undifferentiated and neuron-differentiated P19/mito c-Photina/1A1 clone; conditions: 100 μM final; undifferentiated cells vs day 8 neurons; FIG. 23
Method: Concerning undifferentiated P19/mito c-Photina®/1A1 clone, 3000 cells/well were seeded in gelatin coated 384 well plates. 24 h after seeding the cells were incubated with 25 μl/well of Fluo-4 NW® calcium sensitive fluorescent dye in the dark.
Concerning neurons differentiated from P19/mito c-Photina®/1A1 clone, at day 8 of the neuronal differentiation protocol (4 days after seeding in poly D-lysine coated 384 well plates) cells were incubated with 25 μl/well of Fluo-4 NW® calcium sensitive fluorescent dye in the dark.
Both plates were incubated for 30 minutes at 37° C. and then for 30 minutes at room temperature.
12.5 μl/well of the following 3× compounds in tyrode buffer were injected, and the fluorescence signal was recorded for 330 sec and expressed as RFU.
The same experiment was in contemporary performed on undifferentiated P19/mito c-Photina® 1A1 clone (at 24 h after seeding of 3000 cells/well in 384 MTP, FIG. 23A).

α1-Adrenergic Receptor = assay: CCD camera-based luminescent functional test on cardiomyocytes differentiated from ES/mito c-Photina/29 clone; conditions: 100 μM; 20,000 c/w in 96 MTP; 10 μM coelenterazine; high sens., 60 sec; FIG. 8A
[2] = test system: Voltage-gated Calcium Channels; assay: CCD camera-based luminometer test on neurons differentiated from P19/mito c-Photina/1A1 clone; conditions: 40 mM; differentiation day 8 and 11; 384 MTP; tyrode as control; FIG. 21
Method: At day 8 and day 11 of the neuronal differentiation protocol (respectively 4 and 7 days after seeding in poly D-lysine coated 384 MTP), neurons differentiated from P19/mito c-Photina®/1A1 clone were incubated with 25 μl/well of 10 μM coelenterazine in standard tyrode buffer, for 4 hrs at 37° C.
Response to a depolarizing stimulus induced by injection of 40 mM KCl was recorded at CCD camera-based luminometer (conditions: high sensitivity, reading time 60 seconds).
The functionality of these cells was also investigated at CCD camera-based luminometer. At differentiation day 8 and 11 (respectively 4 and 7 days after disaggregation of Embryoid Bodies and seeding on poly D-lysine in 384 MTP), the cells were incubated for 4 h with a tyrode solution containing 10 μM coelenterazine.

[3] = test system: neurons differentiated from P19/mito c-Photina/1A1 clone; assay: FLIPR384 Fluo-4 NW test on neurons differentiated from P19/mito c-Photina/1A1 clone; conditions: 40 mM, differentiation day 8, FIG. 22
Method: 12.5 μl/well of 120 mM KCl (3×) solution was injected, and the fluorescence signal was recorded for 360 sec and expressed as RFU (Relative Fluorescence Units).
At differentiation day 8 the same cells were analyzed also at FLIPR^384 incubating the cells with FLUO-4 NW® and injecting 40 mM KCl depolarizing agent.

[4] = test system: GqPCR Endothelin Receptors; assay: CCD camera-based luminescent functional test on cardiomyocytes differentiated from ES/mito c-Photina/29 clone; conditions: 50 nM; 20,000 c/w in 96 MTP; 10 μM coelenterazine; high sens., 60 sec; FIG. 8A
Method: CCD-Camera Based Luminometer Measurements with Cardiomyocytes • EBs were dissociated at differentiation day 9 with Accutase™ (Chemicon, Cat. N. SCR005), counted and incubated (20000 cells/well in a 96 MTP) in 10 μM coelenterazine in standard tyrode buffer (for the test on GqPCRs) and in tyrode without KCl (for the test on L-type Calcium Channels) for 3 hrs at 37° C. • The tests were run 3 h after cell seeding. • The responses to 50 nM Endothelin-1, 100 μM Noraepinephrine were measured at the CCD camera-based luminometer (conditions: high sensitivity, reading time 60 seconds). • The Voltage gated Calcium Channels were stimulated with 40 mM KCl. The specificity of the channels was checked incubating the cells 15 minutes before he measurement with 5 μM Nifedipine (a specific L-type Voltage-gated Calcium Channel inhibitor) (SIGMA, Cat. N. N7634). • Residual total photoprotein activity was measured after Triton X-100 cell lysis at the CCD camera-based luminometer (conditions: high sensitivity, for 30 seconds). Neuronal Differentiation Protocol with the Embryoid Bodies (EBs) Formation Step
Preliminary functional tests were performed at the CCD camera-based luminometer instrument after Embryoid Bodies disaggregation with Accutase® buffer and resuspension in 10 μM coelenterazine tyrode buffer. The cells were counted and seeded at a cellular concentration of 20,000 c/w in a 96 MTP. […]

Molecule: N[C@@H](CCC(=O)O)C(=O)O [Glutamate]
fluorescence signal after stimulation, undifferentiated vs differentiated cells [1]: much higher in the differentiated cells than in the undifferentiated ones

luminescence response (calcium) to agonist (α1-Adrenergic Receptor): strong
Molecule: NC[C@H](O)c1ccc(O)c(O)c1 [Norephinephrine]

Molecule: [Cl-].[K+] [KCl]
luminescence response to depolarizing stimulus [2]: optimal responses | fluorescence signal (calcium entry) after depolarizing agent [3]: sensible increase of the signal

luminescence response (calcium) to agonist [4]: strong
Molecule: Endothelin-1
